Residue numbers refer to the chain shown, from its start.
What was measured:
Format in all cases: cell-based
GluRδ2^Lc E531A = molecular target: T1, GluRδ2^Lc E531A (Rattus norvegicus, UniProt Q63226, A654T/E531A); experiment: Two-electrode voltage-clamp recordings in Xenopus oocytes, GluRδ2^Lc E531A
T1 sequence (Q63226 24-1007 E531A/A654T): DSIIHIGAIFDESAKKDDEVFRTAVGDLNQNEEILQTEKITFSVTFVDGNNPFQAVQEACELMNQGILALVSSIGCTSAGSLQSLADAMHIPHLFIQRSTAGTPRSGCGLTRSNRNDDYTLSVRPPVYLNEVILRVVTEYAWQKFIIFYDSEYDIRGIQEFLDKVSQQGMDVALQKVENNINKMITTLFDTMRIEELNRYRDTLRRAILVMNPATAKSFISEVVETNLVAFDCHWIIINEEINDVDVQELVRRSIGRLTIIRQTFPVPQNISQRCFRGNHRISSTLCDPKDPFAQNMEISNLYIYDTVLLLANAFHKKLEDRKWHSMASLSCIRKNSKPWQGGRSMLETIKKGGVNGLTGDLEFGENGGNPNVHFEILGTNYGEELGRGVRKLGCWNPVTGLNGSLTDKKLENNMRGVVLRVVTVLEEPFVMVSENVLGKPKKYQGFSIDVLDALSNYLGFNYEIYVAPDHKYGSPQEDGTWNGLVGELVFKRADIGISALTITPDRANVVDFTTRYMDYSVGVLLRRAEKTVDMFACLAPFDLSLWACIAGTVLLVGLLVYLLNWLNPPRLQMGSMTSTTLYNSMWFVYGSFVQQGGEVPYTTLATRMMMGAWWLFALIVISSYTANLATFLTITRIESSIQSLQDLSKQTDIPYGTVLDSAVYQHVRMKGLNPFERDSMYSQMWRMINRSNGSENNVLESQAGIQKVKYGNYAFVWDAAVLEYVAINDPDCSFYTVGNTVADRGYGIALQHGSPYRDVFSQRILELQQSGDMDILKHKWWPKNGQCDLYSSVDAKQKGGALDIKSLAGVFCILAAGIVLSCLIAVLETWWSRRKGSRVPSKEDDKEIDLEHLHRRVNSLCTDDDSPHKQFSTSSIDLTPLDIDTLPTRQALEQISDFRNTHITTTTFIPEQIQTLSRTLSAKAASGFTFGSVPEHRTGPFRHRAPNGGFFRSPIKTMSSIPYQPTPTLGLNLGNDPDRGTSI

GluRδ2^Lc E531A+D535A = molecular target: T2, GluRδ2^Lc E531A+D535A (Rattus norvegicus, UniProt Q63226, A654T/D535A/E531A); experiment: Two-electrode voltage-clamp recordings in Xenopus oocytes, GluRδ2^Lc E531A+D535A
T2 sequence (Q63226 24-1007 E531A/D535A/A654T): T1 sequence (Q63226 24-1007 E531A/A654T) with D512A

GluRδ2^Lc D535C+D782C = molecular target: T3, GluRδ2^Lc D535C+D782C (Rattus norvegicus, UniProt Q63226, A654T/D535C/D782C); experiment: Two-electrode voltage-clamp recordings in Xenopus oocytes, GluRδ2^Lc D535C+D782C
T3 sequence (Q63226 24-1007 D535C/A654T/D782C): T1 sequence (Q63226 24-1007 E531A/A654T) with A508E, D512C, D759C

D-serine + 0 mM Ca^2+ nH (GluRδ2^Lc E531A; Hill slope, 0 mM Ca^2+)	D-serine + 3 mM Ca^2+ nH (GluRδ2^Lc E531A; Hill slope, 3 mM Ca^2+)	D-serine + 0 mM Ca^2+ nH (GluRδ2^Lc E531A+D535A; Hill slope, 0 mM Ca^2+)	D-serine + 3 mM Ca^2+ nH (GluRδ2^Lc E531A+D535A; Hill slope, 3 mM Ca^2+)	D-serine + 0 mM Ca^2+ nH (GluRδ2^Lc D535C+D782C; Hill slope, 0 mM Ca^2+)	D-serine + 3 mM Ca^2+ nH (GluRδ2^Lc D535C+D782C; Hill slope, 3 mM Ca^2+)	Ca^2+ potentiation (relative to baseline) (GluRδ2^Lc E531A; 3 mM Ca^2+, ± SEM)	Ca^2+ potentiation (relative to baseline) (GluRδ2^Lc E531A+D535A; 3 mM Ca^2+, ± SEM)	Ca^2+ potentiation (relative to baseline) (GluRδ2^Lc D535C+D782C; 3 mM Ca^2+, ± SEM)	Structure (SMILES)
1.1	1.9	2.2	2.2	0.9	1.0	–	–	–	N[C@H](CO)C(=O)O [D-serine]
–	–	–	–	–	–	1.6 ± 0.08 fold	1.0 ± 0.04 fold	0.9 ± 0.01 fold	[Ca+2] [Ca^2+, calcium]

From article PMC2806602 (The Journal of neuroscience : the official journal of the …, 2009)
